Assays:
[1] = Stability of reconstituted LDL in presence of plasma (KBr gradient fractionation); assay type: in vitro ADME; conditions: 1 ml de plasma humain, trois heures à 37° C
Description: Dans un milieu biologique aussi complexe que le plasma, de nombreux constituants peuvent, à priori, inte) ragir avec les LDL rec. CT040013 et provoquer leur déstabilisation ou entraîner une libération du principe actif incorporé. Aussi, une première étude a été entreprise pour essayerde caractériser le comportement des LDL rec. CT040013 lorsque ces dernières sont mises en présence de plasma.
Deux préparations ont été testées : les LDL rec. O.CHOL [^14C] et les LDL rec" CT040013. 500 µl de ces différentes préparations sont incubées avec 1 ml de plasma humain pendant trois heures à 37° C. Au terme de cette incubation, les échantillons sont fractionnés par ultracentrifugation sur gradient discontinu en KBr. Par aspiration, on récupère les fractions correspondantes aux différentes densités, et sur chacune de celle-ci, le cholestérol, les phospholipides, l'oléate de cholestérol [^14C] sont dosés (figure 15). Le profil en cholestérol total et en phospholipides est identique dans les deux gradients. On y distingue trois pics correspondants aux trois classes de lipoprotéines, par ordre décroissant de densité : HDL, LDL, et VLDL.

L. mexicana amazonentis = assay: In vitro antileishmanial model: intracellular amastigotes in peritoneal macrophages; assay type: cell-based; conditions: for Nombre d'amastigotes (b) (% des contrôles): 35°, mean (SD) of 4
Description: Le modèle in vitro utilisé, consiste à développer les formes intracellulaires (amastigotes) de Leishmania mexicana anazonentis dans des macrophages péritonéaux de souris Balb/c injectés initialement par les formes promastigotes.
La culture de macrophages est obtenue à partir des cellules de la cavité péritonéale.
Brièvement, la cavité péritonéale est lavée plusieurs fois avec du milieu RPMI 1640 contenant de la pénicilline (100 U/ml) et de la streptomycine (100 µg/ml) additionné de glutamine (2 mM) et de 20 % de sérum de veau foetal décomplémenté à la chaleur. Ce milieu constitue le milieu de culture complet. Après centrifugation de la suspension cellulaire ainsi obtenue, les cellules sont resuspendues dans le même milieu, puis incubées 1 heure à 37° C en présence de 5 % C02 dans des boîtes de Pétri. Les macrophages adhérents sont ensuite lavés plusieurs fois, détachés de leur support puis comptés. Un volume cellulaire contenant 2,5 x 10^5 macrophages est ajouté dans chaque puits (16 mm de diamètre) des boîtes de culture contenant chacun une lamelle en verre. Les cellules sont ainsi cultivées 3 jours à 37°C. Avant d'être utilisées, les cultures sont lavées 2 fois pour retirer les cellules non adhérentes. Dans ces conditions, les cultures contiennent 1,5 à 2,0 x 10^5 macrophages.
La souche de L. mexicana amazonentis est maintenue sous forme promastigote à 27° C par passage successif dans du milieu Schneider Drosophila contenant 100 µg/ml de gentamycine, 2 mM de glutamine, 5 gg/ml d'hémine et additionné de 20 % de sérum de veau foetal décomplémenté.
Une suspension de promastigotes en phase stationnaire est ajoutée à chaque culture de macrophages à raison de 4 parasites par cellule. Les cultures sont incubées à 34,5°-35°C (5 % C02-95 % air) pendant 7 heures. Les cultures infectées sont lavées avec du milieu sans sérum jusqu'à ce qu'il y ait moins de un parasite par 20 macrophages. Une culture (1 boîte à 4 puits) est fixée et colorée au May-Grûnwald Giemsa pour contrôler l'infection (jour 0). S'il y a moins de 50 organismes intracellulaires par 100 macrophages, l'infection est considérée trop faible pour une interprétation correcte des résultats. 24 heures après l'infection, le milieu de culture est remplacé par du milieu frais contenant ou non un agent thérapeutique. Nous avons choisi d'utiliser le dérivé oléoyl-kétoconazole seul ou incorporé à des LSL natives ou acétylées. Le milieu (± l'agent thérapeutique) est renouvelé au jour 3. Au jour 6, des cultures de macrophages Infectés sont fixées, colorées, séchées, la lamelle de verre est ensuite montée sur une lame pour l'observation microscopique.
Le nombre d'amastigotes contenu dans 100 à 200 macrophages est déterminé pour chaque culture. Le nombre moyen d'organismes par 100 macrophages au jour 6 dans les cultures traitées est exprimé en pourcentage du nombre moyen d'organismes par 100 macrophages dans les cultures contrôles au jour 6 (% de survie). Les cultures contrôles contiennent en moyenne 300 à 400 parasites par 100 macrophages; 60 % en moyenne des macrophages sont infectés et contiennent de 5 à 7 amastigotes.

[2] = Leishmania mexicana, Peritoneal macrophage, read-out: Activité (c) (% inhibition)

CCCCCCCC/C=C\CCCCCCCC(=O)N1CCN(c2ccc(OC[C@H]3CO[C@](Cn4ccnc4)(c4ccc(Cl)cc4Cl)O3)cc2)CC1 [KO1]
association à l'albumine [1]: il n'a pas été possible de mettre en évidence une association | relarguage / redistribution de la molécule incorporée en présence de plasma [1]: n'est pas pris en charge par ces protéines de transfert | inhibition at 0.5 µg/mL (L. mexicana amazonentis; [2]): 28% | inhibition at 1 µg/mL (L. mexicana amazonentis; [2]): 43% | inhibition at 1.4 µg/mL (L. mexicana amazonentis; [2]): 50% | inhibition at 2 µg/mL (L. mexicana amazonentis; [2]): 56% | inhibition at 2.5 µg/mL (L. mexicana amazonentis; [2]): 64% | inhibition at 11 µg/mL (L. mexicana amazonentis; [2]): 90% | index thérapeutique (rapport de ED50 kéto sur ED50 K01) (L. mexicana amazonentis; compared with kétoconazole): 9 | Nombre d'amastigotes (b) (% des contrôles) (L. mexicana amazonentis; dose 0,5 µg/ml, 6 jours): 72 (6) % | Nombre d'amastigotes (b) (% des contrôles) (L. mexicana amazonentis; dose 1,0 µg/ml, 6 jours): 57 (3) % | Nombre d'amastigotes (b) (% des contrôles) (L. mexicana amazonentis; dose 1,4 µg/ml, 6 jours): 50 (4) % | Nombre d'amastigotes (b) (% des contrôles) (L. mexicana amazonentis; dose 2,0 µg/ml, 6 jours): 44 (2) % | Nombre d'amastigotes (b) (% des contrôles) (L. mexicana amazonentis; dose 2,5 µg/ml, 6 jours): 36 (6) % | Nombre d'amastigotes (b) (% des contrôles) (L. mexicana amazonentis; dose 11,0 µg/ml, 6 jours): 10 (4) % | ED50 (50 % d'inhibition) (L. mexicana amazonentis; intracellular amastigotes, 6 jours): 1,4 µg KO1.ml
